From BigSolDB 2.1

CS(=O)(=O)c1ccc(F)cc1
Conditions | solubility (mole fraction)
in acetone, 290.53 K | 0.226
in acetone, 298.3 K | 0.282
in acetone, 304.2 K | 0.331
in chloroform, 288.4 K | 0.229
in chloroform, 293.25 K | 0.262
in chloroform, 299.93 K | 0.312
in chloroform, 305 K | 0.352
in ethanol, 291.07 K | 0.0162
in ethanol, 297.34 K | 0.0302
in ethanol, 303.07 K | 0.0471
in ethanol, 308.66 K | 0.0744
in ethyl acetate, 293.28 K | 0.189
in ethyl acetate, 299.67 K | 0.23
in ethyl acetate, 305.75 K | 0.278
in ethyl acetate, 313.05 K | 0.35
in toluene, 290.84 K | 0.0422
in toluene, 298.86 K | 0.0744
in toluene, 304.15 K | 0.105
in toluene, 306.87 K | 0.125
